# pIC50: −log10 of the molar value.
# Test system: 521955-158-R2-J5-PDC complex spheroid viability
# Assay: Anticancer human tumor 521955-158-R2-J5-PDC patient-derived pancreatic carcinoma cell line growth inhibition
# Details: for pIC50: curve of first compound; for viability, T/C: stronger effect = lower value
# In short: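 Complex spheroids of tumor cells with HUVEC and human MSCs, exposed to iadademstat combined with other agents. Each agent tested in half-log steps from near clinical Cmax (else 10 microM top), DMSO ≤0.25%.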
# [1] = second compound 0.1 µM, first compound 0.0316 µM
# [2] = second compound 0.1 µM, first compound 0.1 µM
# [3] = second compound 0.1 µM, first compound 0.316 µM
# [4] = second compound 0.1 µM, first compound 1 µM
# [5] = second compound 0.1 µM, first compound 3.16 µM
# [6] = second compound 0.1 µM, first compound 10 µM
# [7] = second compound 0.316 µM, first compound 0.0316 µM
# [8] = second compound 0.316 µM, first compound 0.1 µM
# [9] = second compound 0.316 µM, first compound 0.316 µM
# [10] = second compound 0.316 µM, first compound 1 µM
# [11] = second compound 0.316 µM, first compound 3.16 µM
# [12] = second compound 0.316 µM, first compound 10 µM
# [13] = second compound 1 µM, first compound 0.0316 µM
# [14] = second compound 1 µM, first compound 0.1 µM
# [15] = second compound 1 µM, first compound 0.316 µM
# [16] = second compound 1 µM, first compound 1 µM
# [17] = second compound 1 µM, first compound 3.16 µM
# [18] = second compound 1 µM, first compound 10 µM
# [19] = second compound 3.16 µM, first compound 0.0316 µM
# [20] = second compound 3.16 µM, first compound 0.1 µM
# [21] = second compound 3.16 µM, first compound 0.316 µM
# [22] = second compound 3.16 µM, first compound 1 µM
# [23] = second compound 3.16 µM, first compound 3.16 µM
# [24] = second compound 3.16 µM, first compound 10 µM
# [25] = second compound 10 µM, first compound 0.0316 µM
# [26] = second compound 10 µM, first compound 0.1 µM
# [27] = second compound 10 µM, first compound 0.316 µM
# [28] = second compound 10 µM, first compound 1 µM
# [29] = second compound 10 µM, first compound 3.16 µM
# [30] = second compound 10 µM, first compound 10 µM
# 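Further: spheroids exposed to agents for seven days.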
# 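Wherever viability, T/C is given: percent of DMSO vehicle control luminescence viability.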
SMILES,pIC50 (second compound 0.1 µM),pIC50 (second compound 0.316 µM),pIC50 (second compound 1 µM),pIC50 (second compound 3.16 µM),pIC50 (second compound 10 µM),"viability, T/C [1] [%]","viability, T/C [2] [%]","viability, T/C [3] [%]","viability, T/C [4] [%]","viability, T/C [7] [%]","viability, T/C [8] [%]","viability, T/C [9] [%]","viability, T/C [10] [%]","viability, T/C [13] [%]","viability, T/C [14] [%]","viability, T/C [15] [%]","viability, T/C [16] [%]","viability, T/C [19] [%]","viability, T/C [20] [%]","viability, T/C [21] [%]",further results
CC(C)c1c(-c2ccccc2)nc2c(C#N)c[nH]n2c1=O + NC1CC1c1ccc(-c2cccc(O)c2)cc1,< 5.00,< 5.00,< 5.00,< 5.00,5.48,48.6,55.6,62.2,46.3,54.5,55.9,60.8,56.3,65.5,70.8,72.2,58.8,57.6,67.2,71.3,"viability, T/C [5]: 54.8%; viability, T/C [6]: 56.8%; viability, T/C [11]: 54.5%; viability, T/C [12]: 46.8%; viability, T/C [17]: 60.6%; viability, T/C [18]: 49.5%; viability, T/C [22]: 69.8%; viability, T/C [23]: 58.3%; viability, T/C [24]: 39.7%; viability, T/C [25]: 62.9%; viability, T/C [26]: 72.7%; viability, T/C [27]: 70.2%; viability, T/C [28]: 61.8%; viability, T/C [29]: 50.9%; viability, T/C [30]: 41.3%"
CC1COCCN1c1cc(-c2ccnn2C)c2ccnc(-c3ccn[nH]3)c2n1 (stereo not given) + NC1CC1c1ccc(-c2cccc(O)c2)cc1,> 8.50,> 8.50,> 8.50,> 8.50,> 8.50,17.3,25.2,29.5,10.9,17.9,26.1,28.5,10.6,18.9,25.4,26.6,10.6,21.1,24.9,26.1,"viability, T/C (second compound 0.1 µM, first compound 0.00316 µM): 15.7%; viability, T/C (second compound 0.1 µM, first compound 0.01 µM): 16.1%; viability, T/C (second compound 0.316 µM, first compound 0.00316 µM): 23.3%; viability, T/C (second compound 0.316 µM, first compound 0.01 µM): 16.2%; viability, T/C (second compound 1 µM, first compound 0.00316 µM): 22.9%; viability, T/C (second compound 1 µM, first compound 0.01 µM): 19.6%; viability, T/C (second compound 3.16 µM, first compound 0.00316 µM): 22.8%; viability, T/C (second compound 3.16 µM, first compound 0.01 µM): 19.7%; viability, T/C [22]: 9.32%; viability, T/C (second compound 10 µM, first compound 0.00316 µM): 26.7%; viability, T/C (second compound 10 µM, first compound 0.01 µM): 22.6%; viability, T/C [25]: 22.5%; viability, T/C [26]: 26.9%; viability, T/C [27]: 22.4%; viability, T/C [28]: 9.48%"
COc1ccc([C@@H](O)c2cc(-c3ncnc4cc(N5CCOCC5)ccc34)c(F)cc2Cl)nn1 + NC1CC1c1ccc(-c2cccc(O)c2)cc1,5.91,5.79,5.88,5.92,6.08,72.7,78.3,73.6,49.9,74.3,69.5,68.2,57.6,76.1,72,63.1,55.5,74.5,78.7,65.4,"viability, T/C [5]: 36.5%; viability, T/C [6]: 21.6%; viability, T/C [11]: 39.9%; viability, T/C [12]: 20.6%; viability, T/C [17]: 37.3%; viability, T/C [18]: 20.5%; viability, T/C [22]: 53.1%; viability, T/C [23]: 35.2%; viability, T/C [24]: 21.7%; viability, T/C [25]: 75.3%; viability, T/C [26]: 70.6%; viability, T/C [27]: 59.8%; viability, T/C [28]: 49.9%; viability, T/C [29]: 31.8%; viability, T/C [30]: 21.6%"
